Several values for one entry are separate records, joined by “and”; a condition that tells them apart may be missing. Equal values may be shown once.
Experiments:
[1] = tested on: HCT116; experiment: In vitro tracer uptake (gamma counter) in HCT116 senescence cell model; type: cell-based; conditions: 1×10^6 cells, 0.74 MBq tracer, 40 min; for Uptake in % ID per million cells, HCT116 (cntrl): control HCT116 cells; for Uptake in % ID per million cells, HCT116 (sen): senescent HCT116 cells
Experimental: (§1) Cells were cultured in a humidified incubator (Binder, Tuttlingen, Germany) at 37° C. and 5% CO2. Fetal bovine serum (FBS, Sigma of Merck) was heat-inactivated for 30 min at 57° C. for cell culture supplementation. For in vitro uptake experiments, the cells were rinsed with DPBS, harvested with a cell scraper and finally centrifuged. The cell pellet was then washed with DPPS and resuspended in DPBS, before being counted. A suspension of 1×10^6 cells in 1 ml DPBS was incubated with 0.74 MBq of tracer at 37° C. and 5% CO2 for 40 min. After the designated incubation time, the suspension was centrifuged. The cell pellet was transferred into a fresh gamma counter tube (Sarstedt), washed twice with 1 ml DPBS and resuspended in 1 ml DPBS. The uptake was measured with a 2480 Wizard^2 automated gamma counter (Perkin Elmer).

[2] = tested on: CT26; experiment: In vitro tracer uptake (gamma counter) in wild type CT26 control cells; type: cell-based; conditions: 1×10^6 cells, 0.74 MBq tracer, 40 min, 37° C.
Experimental: as §1
(§2) In vitro experiments were performed by uptake quantification in a gamma-counter. In all experiments, 1 million of each of the cell lines were treated with 20 μCi of tracer. After incubation time of 40 minutes, the cells were centrifuged, the supernatant discarded and the cell pellet resuspended in fresh PBS. The samples were then measured in biodistribution tubes in a gamma counter. The tracers were tested first using a β-galactosidase (LacZ) overexpression model of a colon carcinoma cell line (CT26-CL25) and the wild type (CT26) as control (FIG. 2A). Next, the tracers were tested in a senescent cell model: a liver carcinoma cell line (Amp19) treated with ribosomal checkpoint inhibitor (RCI) (FIGS. 2B and 2C).

[3] = tested on: Amp19; experiment: In vitro tracer uptake (gamma counter) in Amp19 senescence cell model; type: cell-based; conditions: 1×10^6 cells, 0.74 MBq tracer, 40 min; for Uptake in % ID per million cells, Amp19 (cntrl): control Amp19 cells; for Uptake in % ID per million cells, Amp19 (sen): senescent Amp19 cells (treated with RCI)
Experimental: as §1, §2

[4] = tested on: CT26.CL25 (LacZ+); experiment: In vitro tracer uptake (gamma counter) in β-galactosidase (LacZ) overexpressing cells; type: cell-based; conditions: β-galactosidase (LacZ) overexpression model; 1×10^6 cells, 0.74 MBq tracer, 40 min, 37° C.
Experimental: as §1, §2

[5] = tested on: Amp19 tumors; experiment: Ex vivo autoradiography of Amp19 tumors after tracer administration; type: in vivo, mice; conditions: cx-treated (senescent) vs non-senescent control Amp19 tumors, FIG. 5
Experimental: (§3) Animal procedures were approved by the local authorities (Regierungspraesidium Tuebingen, Tuebingen, Germany) and conducted according to the German Animal Welfare Act. The mice used were between 6 and 7 weeks of age. Tumors were implanted by injecting 0.5×10^6 cells s.c. into the right flank of SCID beige mice. When most tumors reached 100 mm^3 (˜3 weeks post inoculation), the animals were randomized into two groups. The groups received 25 mg/kg/d CX-5461 (AdooQ BioScience, Irvine, CA, USA) or vehicle [50 mM monosodium phosphate (Sigma of Merck KGaA, Darmstadt, Germany), pH 4.5]i.p. for five consecutive days.
For autoradiography, the tumors were embedded in the optimal cutting temperature compound (Tissue-Tek® O.C.T., Sakura, Alphen aan den Rijn, Netherlands) and frozen at −20° C. in the cryotome (Leica, Wetzlar, Germany). Cryosections (20 μm) were then attached to microscope slides (SuperFrost® Plus, R. Langenbrinck, Emmendingen, Germany). The slides were exposed overnight to a phosphor screen (Molecular Dynamics of GE Healthcare). The screen was then scanned by the phosphorimager (Storm 840, Amersham of GE Healthcare). The signal intensities of sections were normalized to each other based on decay corrected animal receiving dose with the open-source software ImageJ (National Institute of Health, Bethesda, MD, USA). […]

[6] = tested on: Amp19 tumors; experiment: Dynamic PET scans of Amp19 tumor bearing mice; type: in vivo
Experimental: as §3
Anatomical imaging was conducted on a 7 Tesla small animal MRI scanner with a rat whole body coil and Paravision® software (Bruker, Billerica, MA, USA). The animals were then transferred to the PET scanner without moving the animal to ensure co-registration. The animals received 12±1 MBq tracer (determined by a CRC 15-R dose calibrator) was injected through a tail vein catheter, which was subsequently flushed with 50 μl heparinized saline solution. The transmission scan using an external ^57Co point source was performed for the attenuation correction. […]
The list mode raw file was histogrammed and reconstructed with OSEM3D/SP-MAP algorithm implemented in Inveon Acquisition Workplace. […] The tracer uptake was calculated as the percentage of the injected dose per cubic centimeter (% ID/cc). […]

OC[C@H]1O[C@@H](Oc2ccc(NCCC[18F])cc2COc2c(F)c(F)cc(F)c2F)[C@H](O)[C@@H](O)[C@H]1O [[^18F]ADTFPBGal]
Uptake in % ID per million cells, HCT116 (cntrl) [1]: 1.564 % ID per million cells | Uptake in % ID per million cells, HCT116 (sen) [1]: 0.6573 % ID per million cells | Uptake in % ID per million cells, CT26 [2]: 1.403 % ID per million cells | Uptake in % ID per million cells, Amp19 (cntrl) [3]: 1.085 % ID per million cells | Uptake in % ID per million cells, Amp19 (sen) [3]: 0.205 % ID per million cells | Uptake in % ID per million cells, CT26.CL25 (LacZ+) [4]: 4.515 % ID per million cells

OC[C@H]1O[C@@H](Oc2cccnc2[18F])[C@H](O)[C@@H](O)[C@H]1O [[^18F]FPyGal, reference compound]
Uptake in % ID per million cells, HCT116 (cntrl) [1]: 0.3438 % ID per million cells | Uptake in % ID per million cells, HCT116 (sen) [1]: 0.1998 % ID per million cells | Uptake in % ID per million cells, Amp19 (cntrl) [3]: 0.2657 % ID per million cells | Uptake in % ID per million cells, Amp19 (sen) [3]: 0.0639 % ID per million cells | Uptake in % ID per million cells, CT26.CL25 (LacZ+) [4]: 0.5769 % ID per million cells and 1.117 % ID per million cells

O=[N+]([O-])c1ccc(OCc2cc(NCCC[18F])ccc2O[C@@H]2O[C@H](CO)[C@H](O)[C@H](O)[C@H]2O)cc1 [[^18F]NO2BGal]
Uptake in % ID per million cells, HCT116 (cntrl) [1]: 0.5052 % ID per million cells | Uptake in % ID per million cells, HCT116 (sen) [1]: 0.3026 % ID per million cells | Uptake in % ID per million cells, CT26 [2]: 1.492 % ID per million cells | Uptake in % ID per million cells, Amp19 (cntrl) [3]: 1.286 % ID per million cells | Uptake in % ID per million cells, Amp19 (sen) [3]: 0.3245 % ID per million cells | Uptake in % ID per million cells, CT26.CL25 (LacZ+) [4]: 0.9792 % ID per million cells

OC[C@H]1O[C@@H](Oc2ccc(N3CCN(CCC[18F])CC3)cc2)[C@H](O)[C@@H](O)[C@H]1O [[^18F]PIPGal]
Uptake in % ID per million cells, HCT116 (cntrl) [1]: 0.1219 % ID per million cells | Uptake in % ID per million cells, HCT116 (sen) [1]: 0.09843 % ID per million cells | Autoradiography signal accumulation in tumors [5]: High signal accumulation is observed in the cx-treated (senescent) tumors compared to the non-senescent controls | Uptake in % ID per million cells, CT26 [2]: 0.3131 % ID per million cells | Uptake in % ID per million cells, Amp19 (cntrl) [3]: 0.3165 % ID per million cells | Uptake in % ID per million cells, Amp19 (sen) [3]: 0.04018 % ID per million cells | Uptake in % ID per million cells, CT26.CL25 (LacZ+) [4]: 0.06898 % ID per million cells

OC[C@H]1O[C@@H](Oc2cc([18F])ccc2COc2c(F)c(F)cc(F)c2F)[C@H](O)[C@@H](O)[C@H]1O [[^18F]TFPBGal]
Dynamic uptake in tumors (PET) ([6]; CX-treated (senescent) vs untreated control Amp19 tumors, tracer i.v., FIG. 4): higher in CX-treated (senescent) tumors compared to untreated controls at all time points | Washout of tumor uptake (dynamic PET) ([6]; treated and untreated Amp19 tumors, uptake stable, reaches a maximum and plateaus): no observable washout effect | Uptake in % ID per million cells, HCT116 (cntrl) [1]: 4.745 % ID per million cells | Uptake in % ID per million cells, HCT116 (sen) [1]: 2.761 % ID per million cells | Uptake in % ID per million cells, CT26 [2]: 2.444 % ID per million cells | Uptake in % ID per million cells, Amp19 (cntrl) [3]: 3.641 % ID per million cells | Uptake in % ID per million cells, Amp19 (sen) [3]: 0.3992 % ID per million cells | Uptake in % ID per million cells, CT26.CL25 (LacZ+) [4]: 7.514 % ID per million cells
